Here are results for 4 compounds from article PMC9412022, “Integrate thermostabilized fusion protein apocytochrome b 562 RIL and N-glycosylation mutations: A novel approach to heterologous expression of human UDP-glucuronosyltransferase (UGT) 2B7” (Frontiers in Pharmacology, 2022).

For one series, the target named is T1, UGT2B7 (N315A)-BRIL (Homo sapiens, UniProt P16662, N315A).
T1 construct: we selected the full-length UGT2B7 (N315A)-BRIL construct with BRIL covalently attached to the C-terminus of UGT2B7; made in house; host or cells: Spodoptera frugiperda Sf9 insect cells (Bac-to-Bac baculovirus)
T1 sequence (P16662 24-529 N315A): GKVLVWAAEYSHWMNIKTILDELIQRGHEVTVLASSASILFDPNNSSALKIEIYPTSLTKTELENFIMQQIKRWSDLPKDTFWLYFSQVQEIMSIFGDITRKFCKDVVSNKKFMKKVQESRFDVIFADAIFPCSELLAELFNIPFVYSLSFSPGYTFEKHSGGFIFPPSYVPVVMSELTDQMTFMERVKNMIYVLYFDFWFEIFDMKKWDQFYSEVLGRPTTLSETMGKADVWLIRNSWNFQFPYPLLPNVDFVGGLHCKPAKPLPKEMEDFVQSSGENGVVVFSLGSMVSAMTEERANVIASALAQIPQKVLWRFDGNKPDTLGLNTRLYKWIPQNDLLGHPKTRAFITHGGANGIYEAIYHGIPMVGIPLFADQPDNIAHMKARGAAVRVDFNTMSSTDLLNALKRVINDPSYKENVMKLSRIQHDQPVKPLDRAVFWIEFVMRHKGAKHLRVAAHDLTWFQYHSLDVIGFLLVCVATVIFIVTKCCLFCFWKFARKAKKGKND
Nature of the series: Surface plasmon resonance binding to purified UGT2B7 (N315A)-BRIL. Particulars: SPR, 25°C, Biacore T200, CM7 chip, steady-state affinity model. On the procedure:
All experiments were performed with a running buffer containing phosphate buffer (pH 7.4), 0.002% LMNG, and 0.0002% CHS to maintain the concentration of detergent above the critical micelle concentration, which is necessary for the formation of micelles and the correct folding of the purified UGT2B7 proteins. About 8,500 response units of 6 × His-tag monoclonal antibody (Proteintech) were directly immobilized on the chip, which were desalted in 10 mM sodium acetate (pH 4.5). Then the purified UGT2B7 proteins flowed over the chip and coupled with the His-tag antibody at about 18,000 RU. And the blank channel was used as the negative control. Substrates or inhibitors solutions flowed over the chip at a flow rate of 30 μl/min and were contacted 120 s. Then, flowed running buffer at the same rate to dissociation 120 s. The obtained affinities data were analyzed with the BIA evaluation software using the steady-state affinity model.
A general note: Surface plasmon resonance follows binding to a sensor surface in real time, without labels.

In a further series the test system is purified UGT2B7 proteins. Nature of the series: Glucuronidation of zidovudine by purified UGT2B7 proteins in detergent LMNG/CHS. Format: in vitro ADME, human. The note with it: purified protein in detergent LMNG/CHS, no phospholipid bilayer.
Another series addresses T2, UGT2B7-BRIL (Homo sapiens, UniProt P16662).
T2 construct: 10xHis (C); made in house; host or cells: Spodoptera frugiperda Sf9 insect cells (Bac-to-Bac baculovirus)
T2 sequence (P16662 24-529): T1 sequence (P16662 24-529 N315A) with A292N
The experiment in a line: CPM thermostability assay (melting temperature) of UGT2B7-BRIL in the presence of compounds. Particulars: apo protein Tm […]; for melting temperature (Tm) of UGT2B7-BRIL in the presence of the compound alone: CPM fluorescence, 20-95°C ramp. Format: binding. On the procedure: The gain setting was determined at the beginning of the run and the melting temperature (Tm) was calculated from the point of inflection.

Where a chain is given by its changes, count along the chain named.

Consider `COc1cc2c(c(O)c1OC)-c1c(cc(OC)c(OC)c1OC)C[C@@H](C)[C@@H](C)C2` [Schisanhenol], for which the Kd (usually the equilibrium constant for the complex coming apart) on UGT2B7 (N315A)-BRIL was determined as 17.3 µM.
Consider `Cc1cn([C@H]2C[C@H](N=[N+]=[N-])[C@@H](CO)O2)c(=O)[nH]c1=O` [Zidovudine], for which, in the series on purified UGT2B7 proteins, the “glucuronidation by purified UGT2B7 proteins” value was “not observed”. In addition, the “melting temperature (Tm) of UGT2B7-BRIL in the presence of the compound alone” value at UGT2B7-BRIL is 53.2 °C. On UGT2B7-BRIL (substrate + UDP), the “melting temperature (Tm) of UGT2B7-BRIL in the presence of both cofactor (UDP) and substrate” value worked out at 61.0 °C.
The compound `COc1ccc([C@@H]2CC(=O)c3c(O)cc(O)cc3O2)cc1O` [Hesperetin] had a Kd on UGT2B7 (N315A)-BRIL of 49.8 µM.
For the compound `O=c1ccn([C@@H]2O[C@H](COP(=O)([O-])OP(=O)([O-])O)[C@@H](O)[C@H]2O)c(=O)[nH]1.[Na+].[Na+]` [UDP, uridine 5′-diphosphate disodium salt], binding on UGT2B7 (N315A)-BRIL was put at a Kd of 589 µM. Further, the “melting temperature (Tm) of UGT2B7-BRIL in the presence of the compound alone” value at UGT2B7-BRIL came to 50.9 °C.
